Measured values from a melting point compilation (Tetko et al.; mined from patent text by program, amines drawn as free bases though some values may be those of a salt).

Compound	melting point [°C]
CCOC(=O)C1=C(N)N=C(OCC)C(C(=O)OCC)C1c1ccc(-c2ccccc2)cc1 (configuration not stated)	145
O=c1ccn(-c2ccc(F)cc2)nc1-c1ccnn1-c1ccccc1	252 to 253
CC(C)(C)c1cc(NC(=O)c2cccc(C(=O)O)c2)cc(C(C)(C)C)c1O	253 to 257
O=c1cc(N2CCCC(CO)C2)oc2c1ccc1ccccc12 (configuration not stated)	209 to 210
COC(=O)c1ccc2sc(C(=O)OC)c(O)c2c1Cl	127 to 131
Clc1cc2oc3ccccc3c2nn1	122
O=C(CN1CCOCC1)N1CCN(Cc2ccc3c(c2)-c2[nH]nc(-c4ccsc4)c2C3)CC1	240 to 242
CC(=O)c1ccc(-c2ccc(Br)cc2)c(Br)c1	82.5 to 84.5
Cc1cc(=O)c(-c2ccc(F)cc2)c(C)o1	114 to 115
O=S(=O)(Nc1ccccc1OCc1csc(-c2ccccc2)n1)C(F)(F)F	123 to 125
O=C1Nc2ccccc2C12CCC2	140 to 145
Cc1noc(C)c1Cn1cc(NC(=O)c2scc(S(C)(=O)=O)c2Cl)cn1	202 to 204
FC(F)(F)c1cc(Cl)ccc1N=C(Cl)n1cncn1	165 to 166
Cc1cc(NC(=O)c2ccccc2O)cc(C)c1O	142 to 145
OCC(CO)CCOc1ccccc1	71 to 73
O=C(O)Cc1cc(N=Nc2ccc(S(=O)(=O)Nc3ccccn3)cc2)ccc1O	135
O=C1NC(=S)CCC1N1Cc2c(cccc2[N+](=O)[O-])C1=S (configuration not stated)	248 to 250
Cc1cc(C2N(c3ccccc3)CCN2c2ccccc2)c(O)cc1N(C)C	207 to 212
CC(=O)Nc1nc(NC(C)=O)nc(C2CCC(c3ccccc3)CC2)n1 (configuration not stated)	235 to 236
COc1cc(COc2nn(-c3ccccc3)cc2C=O)ccc1OCc1coc(-c2ccco2)n1	162 to 163
CC(C)(C)c1ccc(-c2nc(NC(=O)c3cccnc3)sc2-c2ccncc2)cc1	326 to 328
COC(=O)CC(CSc1nc2ccccc2s1)C(=O)OC (configuration not stated)	46 to 47
CCOC(=O)CCc1nnc(-c2nccs2)c2cc(OC)ccc12	153 to 154
O=C(Oc1ccc(-c2ccccc2)cc1)Oc1ccc([N+](=O)[O-])cc1	138 to 140

Compound	melting point [°C]
CCOC(=O)CN(C(=S)Nc1cc(Cl)ccc1C)c1ccccc1	148 to 150
C=CCNc1nc(NC23CC4CC(CC(C4)C2)C3)c2scc(C)c2n1	107 to 109
CC1(C)NC(=O)c2cc(C#N)ccc2O1	127 to 129
Clc1ccc(N2CCN(Cc3cn4cc(Cl)ccc4n3)CC2)c(Cl)c1	136 to 138
COc1ccc(C(=O)N2CCCC3=C2CCc2cc(Cl)ccc23)cc1	182 to 183
Cc1ccc(C(=O)C=Cc2ccccc2)c(C)c1	68
O=C(O)c1ccc2nc3ccccn3c(=O)c2c1	> 310
CC(=O)c1c(O)cccc1OCC(C)(O)Oc1ccc(Br)cc1 (configuration not stated)	102 to 103
CN1COCN(Cc2ccc(Cl)nc2)C1=N[N+](=O)[O-]	116 to 118
COc1ccc(C(=O)Nc2c(Cl)cncc2Cl)c2c1OCC2CC(=O)NCc1ccccc1 (configuration not stated)	284 to 286
Cc1cc(NS(=O)(=O)c2ccc(Nc3nc(OCC4CCCCC4)c4nc[nH]c4n3)cc2)nc(C)n1	233
CCCn1cc(-c2ccc3nnn(Cc4ccc5ncccc5c4)c3n2)cn1	128 to 130
CCN(CC)C(=O)Nc1ccccc1	81 to 85
CCCCCCCCCCCC(=O)N[C@H](CC(=O)c1ccc2ccccc2c1)C(=O)OCC	75 to 76
O=C(O)Cc1ccc(NC(=O)C(COc2ccccc2)NS(=O)(=O)c2ccc(I)cc2)cc1 (racemic)	224 to 225
CCNC(=O)n1nc(Oc2ncc(C(F)(F)F)cc2Cl)c(C)c1C	124 to 125
COc1ccc(S(=O)(=O)N(c2ccc(Cl)cc2Cc2c(F)cccc2F)C(C)CO)cc1OC (configuration not stated)	169
COc1ccc(C2CSc3ccccc3N(CCCl)C2=O)cc1 (configuration not stated)	70
CCc1cc(OCC(=O)O)c(C)cc1SCc1sc(-c2ccc(C(F)(F)F)cc2)nc1C	169 to 171
O=C(c1ccc(O)cc1)c1sc2ccc(O)cc2c1-c1ccccc1	152 to 153
CCOC(=O)c1cc(-c2ccccc2)n(-c2cccc(Cl)c2)c1C	99.6 to 100
O=C(CCCN1CCC(c2ccc(Cl)cc2)CC1)c1ccc(CN2CCCC2)cc1	63 to 65
CCCCSc1cc(C(=O)O)cc(S(N)(=O)=O)c1-c1ccccc1	75 to 77
COC(=O)CCSC(SCCC(=O)OC)c1cccc(C=Cc2ccc3ccc(Cl)cc3n2)c1	53

Compound	melting point [°C]
CCN(CC)C(=O)C=Cc1ccc(-c2ccccc2)cc1	113
COc1ccccc1CN1CCCc2cc(OCc3ccccc3)c(OC)cc2C1	105 to 106
COc1ccc(N2CCOC(c3ccc(C(F)(F)F)cc3)C2)c(-c2ccc(N(C)C)cc2)n1 (configuration not stated)	160 to 161
O=S(=O)(NC(=NO)Nc1ccc(Cl)cc1)c1cc(S(=O)(=O)c2ccccc2)cs1	195
CCOc1ccc(N2CC(C(=O)OC)CC2=O)cc1 (configuration not stated)	67 to 69
CNc1nn(C(=O)NC(C)(C)C)c(=O)n1N	174
CCCn1c(=O)c(N=O)c(N)n(CC2CCCCC2)c1=O	231 to 233
COCO[C@@H]1[C@H]2OC(C)(C)O[C@H]2[C@H](O[C@H]2C[C@H]3OC(C)(C)OC[C@]34C3C(CC[C@]4(O)C2)[C@@]2(O)CC[C@H](CO)[C@@]2(C)C[C@H]3OCOC)O[C@H]1C (some centres not stated)	126 to 129
CC(c1ccccc1)N1CCN(c2nn(C)c3c2Cc2ccccc2-3)CC1 (configuration not stated)	138 to 139
O=C(O)c1nc(-c2ccc(Cl)cc2Cl)c(-c2ccc(Br)cc2)s1	94 to 95
C=CCOc1ccc(C#N)cc1	41.6
CCOC(=O)n1nc(S(=O)(=O)Nc2c(Cl)cccc2Cl)nc1NC	202 to 203
O=C(c1cccc(C(F)(F)F)c1)c1ccc[nH]1	54 to 56
Cc1nc(-n2ccc(OCc3ccccc3)cc2=O)sc1C(=O)NCc1ccc(F)cc1	223 to 225
CCOC(=O)c1c(O)n(CC)c2cc(-c3ccncc3)ccc2c1=O	153 to 157
CCOC(=O)C1(C(=O)OCC)CCNC(=O)C1CCO (configuration not stated)	120 to 121
CCn1nnnc1Cc1ccc(N)cc1	94 to 95
C[C@H](NC(=O)c1c[nH]c2ncc(-c3ccc(C(=O)NCc4cccc(C#N)c4)s3)nc12)C(C)(C)C	171 to 174
NNC(=O)c1ccc2[nH]ncc2c1	251 to 252
CCc1cc(C#N)cc(C)c1CC(=O)OC	65 to 72
CC(CCOc1ccccc1NS(C)(=O)=O)N1CCC(OC(c2ccccc2)c2ccccc2)CC1 (configuration not stated)	114 to 116
CCOC(=O)C(Br)=NNc1ccccc1	82 to 83
Cc1nn(C)c2c(=O)n(-c3ccc(Cl)c(Cl)c3)cnc12	250 to 251
CN(C)C(=O)n1nc2cc(Cl)ccc2c1N	178 to 180
